The source of these data is paper PMC5464344, “Analgesic and anti‐inflammatory properties of novel, selective, and potent EP4 receptor antagonists” (Pharmacology Research & Perspectives, 2017).

As usually defined, the Ki is the dissociation constant of the complex between target and ligand, obtained from inhibition or displacement.

The target of assay [1] is T1, COX2 (h) (Homo sapiens, UniProt P35354).
T1 construct: CEREP (contract laboratory that ran the assay)
T1 sequence (P35354 18-604): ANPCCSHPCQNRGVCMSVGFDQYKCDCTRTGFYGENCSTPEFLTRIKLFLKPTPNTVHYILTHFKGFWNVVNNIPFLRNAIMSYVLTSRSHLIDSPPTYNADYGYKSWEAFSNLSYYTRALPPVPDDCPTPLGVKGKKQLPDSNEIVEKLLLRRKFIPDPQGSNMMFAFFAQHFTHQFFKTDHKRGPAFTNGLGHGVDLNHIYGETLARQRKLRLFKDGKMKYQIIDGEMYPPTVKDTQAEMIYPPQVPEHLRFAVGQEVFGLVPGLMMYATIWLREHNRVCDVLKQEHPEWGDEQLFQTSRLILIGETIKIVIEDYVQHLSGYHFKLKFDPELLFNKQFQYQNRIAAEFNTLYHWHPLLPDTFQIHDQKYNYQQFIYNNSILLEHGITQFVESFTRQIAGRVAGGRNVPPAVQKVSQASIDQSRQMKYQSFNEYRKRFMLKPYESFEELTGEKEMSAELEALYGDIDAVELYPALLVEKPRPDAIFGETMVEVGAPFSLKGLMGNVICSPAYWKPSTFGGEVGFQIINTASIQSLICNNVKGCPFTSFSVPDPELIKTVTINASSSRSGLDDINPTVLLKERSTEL
Briefly: Off-target activity (CEREP), COX2. To be noted: 10 μmol/L; obtained at CEREP (Blanco et al. 2016c); read-out: % Inh COX2 (h). The class given is biochemical. An excerpt:
(§1) The off‐target activity related to prostaglandin pathway (Table 2) were obtained at CEREP (Blanco et al. 2016c).

The target of assay [2] is T2, FP(h); agonist radioligand (Homo sapiens, UniProt P43088).
T2 construct: CEREP (contract laboratory that ran the assay)
T2 sequence (P43088 whole entry): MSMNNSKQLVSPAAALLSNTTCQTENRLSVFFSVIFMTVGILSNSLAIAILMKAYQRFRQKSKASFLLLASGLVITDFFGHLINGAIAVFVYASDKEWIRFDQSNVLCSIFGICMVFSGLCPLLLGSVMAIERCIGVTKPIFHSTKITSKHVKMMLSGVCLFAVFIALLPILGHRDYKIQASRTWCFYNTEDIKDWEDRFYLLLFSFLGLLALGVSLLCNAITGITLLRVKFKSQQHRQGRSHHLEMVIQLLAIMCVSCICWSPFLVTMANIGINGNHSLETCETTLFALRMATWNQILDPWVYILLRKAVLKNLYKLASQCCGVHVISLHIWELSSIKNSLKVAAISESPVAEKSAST
In words: Off-target activity (CEREP), FP. To be noted: 10 μmol/L; obtained at CEREP (Blanco et al. 2016c). The class given is binding.
Text: as §1

The target of assay [3] is T3, TP (TXA2/PGH2) (h); antagonist effect (Homo sapiens, UniProt P21731).
T3 construct: CEREP (contract laboratory that ran the assay)
T3 sequence (P21731 1-343): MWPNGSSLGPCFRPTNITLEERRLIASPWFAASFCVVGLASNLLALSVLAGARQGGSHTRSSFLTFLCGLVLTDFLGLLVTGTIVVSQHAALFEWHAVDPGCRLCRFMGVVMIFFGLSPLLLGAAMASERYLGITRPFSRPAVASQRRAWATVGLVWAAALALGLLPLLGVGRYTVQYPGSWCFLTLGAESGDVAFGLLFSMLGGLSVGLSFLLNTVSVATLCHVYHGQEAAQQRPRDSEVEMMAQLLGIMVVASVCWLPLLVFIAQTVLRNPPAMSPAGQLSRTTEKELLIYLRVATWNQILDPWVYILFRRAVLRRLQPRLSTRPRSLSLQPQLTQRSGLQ
In words: Off-target activity (CEREP), TP antagonist effect. It is filed as biochemical. The note with it: 10 μmol/L; obtained at CEREP (Blanco et al. 2016c).
Text: as §1

The target in assay [4] is T4, DP1(h); agonist radioligand (Homo sapiens, UniProt Q13258).
T4 construct: CEREP (contract laboratory that ran the assay)
T4 sequence (Q13258 1-359): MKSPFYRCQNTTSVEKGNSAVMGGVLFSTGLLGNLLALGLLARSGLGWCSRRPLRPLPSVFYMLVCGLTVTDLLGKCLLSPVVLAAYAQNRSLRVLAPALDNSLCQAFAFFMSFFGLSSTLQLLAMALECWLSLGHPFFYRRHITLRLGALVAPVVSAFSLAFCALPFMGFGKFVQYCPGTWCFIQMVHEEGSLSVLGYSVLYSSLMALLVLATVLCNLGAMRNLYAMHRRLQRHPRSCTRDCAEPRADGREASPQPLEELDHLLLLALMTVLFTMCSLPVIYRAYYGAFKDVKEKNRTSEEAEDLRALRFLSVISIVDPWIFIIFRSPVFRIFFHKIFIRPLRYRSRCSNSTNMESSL
In words: Off-target activity (CEREP), DP1. The class given is binding. The note with it: 10 μmol/L; obtained at CEREP (Blanco et al. 2016c).
Text: as §1

Assay [5] deals with T5, human EP1 receptor (Homo sapiens, UniProt P34995).
T5 construct: membrane preparation
T5 sequence (P34995 1-402): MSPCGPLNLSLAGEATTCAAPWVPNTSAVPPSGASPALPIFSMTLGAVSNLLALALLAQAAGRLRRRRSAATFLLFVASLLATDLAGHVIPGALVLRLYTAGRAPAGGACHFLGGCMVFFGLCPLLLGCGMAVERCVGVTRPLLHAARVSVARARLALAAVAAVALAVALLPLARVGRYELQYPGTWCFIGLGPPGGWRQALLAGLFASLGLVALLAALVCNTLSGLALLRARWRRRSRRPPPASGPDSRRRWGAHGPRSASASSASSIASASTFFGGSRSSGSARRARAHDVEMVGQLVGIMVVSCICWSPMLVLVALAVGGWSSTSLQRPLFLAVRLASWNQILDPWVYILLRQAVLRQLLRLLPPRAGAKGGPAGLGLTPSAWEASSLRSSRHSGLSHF
Briefly: [3H]-PGE2 receptor binding assay, EP1 membranes. The note with it: HEK293 membranes; [3H]-PGE2; geometric mean ± SEM; read-out: hEP1-4 receptor binding EP1 Ki. The procedure: Receptor binding assays were done using membrane preparations of HEK 293 cells transfected with various prostanoid receptors using previously published procedure (Nakao et al. 2007). EP1 and EP4 membranes were prepared from recombinant HEK293 cells stably expressing human EPl receptor (GenBank Accession # AY275470, Clone ID PER0100000, UMR cDNA Resource Center, Rolla, MO) or human EP4 receptor. EP2 and EP3 membranes were prepared from HEK293 cells transiently transfected with human EP2 receptor (GenBank Accession # AY275471, Clone ID PER0200000, UMR cDNA Resource Center, Rolla, MO) or human EP3 receptor (GenBank Accession # AY429108, Clone ID PER3VI0000, UMR cDNA Resource Center, Rolla, MO) plasmids. Frozen cell pellets were homogenized in homogenization buffer (10 mmol/L Tris‐HCl, pH7.4, 250 mmol/L sucrose, 1 mmol/L EDTA, 0.3 mmol/L indomethacin and protease inhibitor cocktail with EDTA (Roche Molecular Biochemicals, catalog # 1691498)) using a Teflon/glass homogenizer. After a low speed centrifugation (200g for 15 min at 4°C) the supernatant was subjected to high speed centrifugation (30,000g for 60 min at 4°C). Membrane protein preparation was aliquoted and quick frozen on dry ice prior to storage at −80°C. […] Compounds were tested in a 96‐well format using a three‐fold dilution series to generate 10‐point curves. […] The binding reaction was performed in 200 μL MES buffer (10 mmol/L MES, pH 6.0, 10 mmol/L MgCl2, and l mmol/L EDTA) using polystyrene 96‐well plates. […] The membranes were harvested by filtration (TomTek harvester), washed four times with cold buffer (10 mmol/L MES, pH 6.0, 10 mmol/L MgCl2), dried in a 60°C oven, and the radioactivity was quantified as counts per min (CPM) using a TopCount detector. […] Data were analyzed using a 4‐parameter nonlinear logistic equation. K i Conversion from IC50 Values (K i = […] where [L] is the ligand concentration). Results are expressed as the geometric mean ± standard deviation or geometric mean ± standard error as noted.

In the case of `C[C@H](NC(=O)[C@H]1CCCCN1CCOc1ccccc1)c1ccc(C(=O)O)cc1` [Compound 2], the inhibition at 10 µM in assay [1] was -17%. Further, in assay [2], the “% Inh FP(h); agonist radioligand” value is −9.00%. For the same compound, in assay [3], the “% Inh TP (TXA2/PGH2) (h); antagonist effect” value was −12.00%. Moreover, the “% Inh DP1(h); agonist radioligand” value in assay [4] was −4.00%.

For the compound `Cc1ccc(N2CCC(O)CC2)nc1C(=O)Nc1c(C)cc(C(=O)O)cc1C` [Compound 1], in assay [1], the inhibition at 10 µM is -10%. Moreover, the “% Inh FP(h); agonist radioligand” value in assay [2] was −2.00%. For the same compound, the “% Inh TP (TXA2/PGH2) (h); antagonist effect” value in assay [3] is given as −12.00%. The “% Inh DP1(h); agonist radioligand” value in assay [4] turned out to be 0.00%.

For the compound `C[C@H](NC(=O)c1cc(Cl)ccc1Oc1ccc(F)cc1)c1ccc(C(=O)O)cc1` [CJ‐042,794, reference compound], the Ki in assay [5] was > 26.7 µM.

Turning to `Cc1ccc(-c2cccc(CO)c2)nc1C(=O)Nc1c(C)ccc(C(=O)O)c1C` [Compound 3], the Ki in assay [5] is > 17.5 µM.
